Measured values: ChEMBL document CHEMBL1201862, “PubChem BioAssay data set” (2004)
Activity calls are given as the source filed them.

Columns and labels:
[1] = inhibitors of intracellular T. cruzi replication, confirmation, NIH3T3 host cells, beta-gal luminescence (AID 2044); assay type: functional, cell-based;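 note: intracellular parasites grown in NIH/3T3 mouse fibroblasts as host cells; luminescent beta-galactosidase reporter signal from transgenic T. cruzi replicating inside host cells; inhibitors lower the luminescence signal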
[2] = cytotoxicity toward NIH3T3 fibroblasts, dose response, counter-screen, cell-based, ATP luminescence, mouse fibroblasts (AID 2010); assay type: functional;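 note: cells exposed to compound for about 90 hours before reading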
Cytochrome P450 2C19 = Cytochrome P450 2C19 (Homo sapiens, UniProt P33261); test: Cytochrome panel assay with activity outcomes. Panel member name: p450-cyp2c19 Compounds with AC50 equal or less than 10 uM are considered active; assay type: functional
Cytochrome P450 1A2 = biological target: T1, Cytochrome P450 1A2 (Homo sapiens, UniProt P05177);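 note: PubChem cytochrome P450 panel assay, CYP1A2 panel member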
T1 sequence (P05177 whole entry): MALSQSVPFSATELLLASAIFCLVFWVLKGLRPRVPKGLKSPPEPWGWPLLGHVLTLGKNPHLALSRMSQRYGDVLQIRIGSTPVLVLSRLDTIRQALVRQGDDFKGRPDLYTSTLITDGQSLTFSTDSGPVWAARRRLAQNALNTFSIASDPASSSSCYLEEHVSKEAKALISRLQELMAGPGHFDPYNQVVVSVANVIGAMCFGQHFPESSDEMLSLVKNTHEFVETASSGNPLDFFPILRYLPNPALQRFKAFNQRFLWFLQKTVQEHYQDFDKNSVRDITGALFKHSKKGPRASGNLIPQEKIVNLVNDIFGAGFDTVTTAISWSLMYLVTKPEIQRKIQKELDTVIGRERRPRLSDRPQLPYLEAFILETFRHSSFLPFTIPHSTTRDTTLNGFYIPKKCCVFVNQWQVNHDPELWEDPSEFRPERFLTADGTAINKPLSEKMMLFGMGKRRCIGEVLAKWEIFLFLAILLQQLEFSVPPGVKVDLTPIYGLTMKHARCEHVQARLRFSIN

Cytochrome P450 2D6 = Cytochrome P450 2D6 (Homo sapiens, UniProt P10635);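 note: CYP2D6 member of a cytochrome P450 panel assay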
Protein RecA = biological target: T2, Protein RecA (Mycobacterium tuberculosis, UniProt P9WHJ3); test: Fluorescence Cell-Free Homogeneous Dose Retest to Identify Inhibitors of RecA-Intein Splicing Activity. [Related pubchem assays (depositor defined):AID2097, AID2223, AID489010, AID492950]; assay type: functional
T2 sequence (P9WHJ3 whole entry): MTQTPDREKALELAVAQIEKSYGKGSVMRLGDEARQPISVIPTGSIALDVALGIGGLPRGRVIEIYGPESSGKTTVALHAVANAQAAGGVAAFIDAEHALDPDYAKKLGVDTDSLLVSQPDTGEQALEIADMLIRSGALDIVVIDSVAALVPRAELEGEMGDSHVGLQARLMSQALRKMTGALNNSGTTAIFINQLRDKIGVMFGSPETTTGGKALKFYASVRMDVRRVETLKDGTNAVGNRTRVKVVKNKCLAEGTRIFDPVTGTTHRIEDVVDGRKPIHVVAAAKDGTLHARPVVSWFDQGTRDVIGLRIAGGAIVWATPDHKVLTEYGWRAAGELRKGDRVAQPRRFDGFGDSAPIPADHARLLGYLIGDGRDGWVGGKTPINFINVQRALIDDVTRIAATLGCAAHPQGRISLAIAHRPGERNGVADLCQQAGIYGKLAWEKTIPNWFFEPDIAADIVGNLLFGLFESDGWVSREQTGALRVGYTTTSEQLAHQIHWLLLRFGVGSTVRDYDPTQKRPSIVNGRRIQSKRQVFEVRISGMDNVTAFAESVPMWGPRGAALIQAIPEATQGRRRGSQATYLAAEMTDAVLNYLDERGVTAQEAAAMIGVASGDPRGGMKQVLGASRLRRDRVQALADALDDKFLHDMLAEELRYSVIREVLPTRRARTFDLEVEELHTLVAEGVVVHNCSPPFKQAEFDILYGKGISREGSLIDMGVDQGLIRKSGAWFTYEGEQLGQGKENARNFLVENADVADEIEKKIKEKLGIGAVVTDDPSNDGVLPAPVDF

[3] = Luminescence Cell-Based Dose Response HTS to Identify Activators of Luciferase Translation or Activity in H4 […] Cells. [Related pubchem assays: 1829 (Project Summary), 1814 (Primary HTS)]; assay type: functional
H4 = test: Luminescence Cell-Based Dose Response HTS to Identify Activators of 5'UTR Stem-Loop Driven Prion Protein mRNA Translation in H4 Neuroglioblastoma Cells. [Related pubchem assays: 1829 (Project Summary), 1814 (Primary HTS)]; assay type: functional; conditions: Homo sapiens
[4] = tested on: Streptococcus sp. 'group A'; test: growth inhibition of control SK(-) GAS strain, dose response, counter-screen for streptokinase expression inhibitor project, luminescence, kanamycin, BacTiterGlo, confirmation (AID 1900); assay type: functional, organism-based
Streptokinase A = biological target: T3, Streptokinase A (Streptococcus pyogenes serotype M1, UniProt P10520); test: S. pyogenes streptokinase expression inhibitors, potency, dose response, plasminogen activation absorbance, OD405 (AID 1914); assay type: functional, Streptococcus pyogenes M1 GAS;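 note: secreted streptokinase activity via plasminogen activation per viability signal from cell pellet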
T3 sequence (P10520 whole entry): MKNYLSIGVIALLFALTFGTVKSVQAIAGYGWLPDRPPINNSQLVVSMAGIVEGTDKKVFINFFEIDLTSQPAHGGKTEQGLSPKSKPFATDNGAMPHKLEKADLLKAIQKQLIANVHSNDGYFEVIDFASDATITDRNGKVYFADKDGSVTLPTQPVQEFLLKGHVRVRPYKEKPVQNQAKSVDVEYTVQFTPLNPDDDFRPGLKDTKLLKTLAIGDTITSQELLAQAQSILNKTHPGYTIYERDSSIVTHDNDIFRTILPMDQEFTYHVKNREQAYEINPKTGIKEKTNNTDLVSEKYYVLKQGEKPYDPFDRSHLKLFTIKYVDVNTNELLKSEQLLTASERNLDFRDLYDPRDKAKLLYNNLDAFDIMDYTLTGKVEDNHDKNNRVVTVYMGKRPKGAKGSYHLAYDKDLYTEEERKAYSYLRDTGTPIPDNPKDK

Streptococcus = test: Group A Streptococcus viability loss, dose response, counter-screen for streptokinase expression inhibitor project, luminescence, BacTiterGlo (AID 1915); assay type: functional, organism-based;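 note: potency for reduction of bacterial viability or growth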
Cytochrome P450 3A4 = Cytochrome P450 3A4 (Homo sapiens, UniProt P08684);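 note: CYP3A4 tested as one member of a cytochrome P450 panel screen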
Cytochrome P450 3A4, sequence (P08684 whole entry): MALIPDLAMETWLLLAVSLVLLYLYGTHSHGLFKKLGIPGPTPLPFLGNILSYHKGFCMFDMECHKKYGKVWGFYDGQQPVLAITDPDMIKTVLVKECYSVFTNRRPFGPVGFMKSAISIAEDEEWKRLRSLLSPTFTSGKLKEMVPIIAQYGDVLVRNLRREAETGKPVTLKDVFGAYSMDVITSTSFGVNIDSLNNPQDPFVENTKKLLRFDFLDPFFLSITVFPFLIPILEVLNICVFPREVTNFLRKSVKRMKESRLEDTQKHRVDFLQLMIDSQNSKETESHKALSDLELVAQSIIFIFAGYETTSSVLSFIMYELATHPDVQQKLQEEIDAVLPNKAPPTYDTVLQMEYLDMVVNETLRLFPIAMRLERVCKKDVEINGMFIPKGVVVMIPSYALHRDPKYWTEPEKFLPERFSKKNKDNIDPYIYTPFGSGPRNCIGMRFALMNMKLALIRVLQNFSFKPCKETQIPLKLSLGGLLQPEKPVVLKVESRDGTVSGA

Cytochrome P450 2D6, sequence (P10635 whole entry): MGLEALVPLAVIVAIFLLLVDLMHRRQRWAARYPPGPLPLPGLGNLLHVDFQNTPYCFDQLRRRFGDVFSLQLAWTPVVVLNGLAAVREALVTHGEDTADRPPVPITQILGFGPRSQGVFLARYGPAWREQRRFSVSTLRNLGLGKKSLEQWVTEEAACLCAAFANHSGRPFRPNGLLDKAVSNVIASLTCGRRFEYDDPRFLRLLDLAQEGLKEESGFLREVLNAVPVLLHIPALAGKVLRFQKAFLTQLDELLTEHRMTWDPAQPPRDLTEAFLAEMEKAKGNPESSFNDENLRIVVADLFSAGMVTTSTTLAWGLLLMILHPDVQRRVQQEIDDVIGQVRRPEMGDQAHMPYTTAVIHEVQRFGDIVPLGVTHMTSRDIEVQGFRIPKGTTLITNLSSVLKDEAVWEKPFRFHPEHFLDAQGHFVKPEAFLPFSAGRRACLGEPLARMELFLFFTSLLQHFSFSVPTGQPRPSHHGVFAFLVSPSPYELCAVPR
Cytochrome P450 2C19, sequence (P33261 whole entry): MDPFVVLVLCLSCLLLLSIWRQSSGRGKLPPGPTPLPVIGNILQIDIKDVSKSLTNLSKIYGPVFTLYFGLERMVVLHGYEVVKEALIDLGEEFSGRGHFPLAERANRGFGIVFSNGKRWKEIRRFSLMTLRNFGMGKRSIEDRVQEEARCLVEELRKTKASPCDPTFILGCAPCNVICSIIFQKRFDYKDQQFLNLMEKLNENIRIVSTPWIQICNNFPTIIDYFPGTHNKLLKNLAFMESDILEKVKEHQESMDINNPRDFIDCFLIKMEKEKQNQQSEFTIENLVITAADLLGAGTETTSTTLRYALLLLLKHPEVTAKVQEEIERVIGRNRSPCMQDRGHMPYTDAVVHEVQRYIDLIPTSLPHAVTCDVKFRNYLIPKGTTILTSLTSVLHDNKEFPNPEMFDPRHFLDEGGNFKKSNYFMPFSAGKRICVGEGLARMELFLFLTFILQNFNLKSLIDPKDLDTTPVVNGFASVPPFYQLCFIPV

Cc1nn2c(O)c3c(nc2c1-c1ccc(F)cc1)CCCC3
EC50 [1]: 0.451 µM (active)
EC50 [2]: 10.1 µM (active)

COCCn1c(=O)c(C)nc2cnc(Oc3cccc(Cl)c3)nc21
AC50 (Cytochrome P450 2C19; read-out: AC50): 20 µM (inconclusive)

N[C@H](Cc1ccc(Cl)cc1)C(=O)O
AC50 (Cytochrome P450 1A2): 2 µM (inconclusive)

O=C(/C=C\c1ccccc1)c1ccccc1O
AC50 (Cytochrome P450 2C19; read-out: AC50): 3.98 µM (inconclusive)

Cc1ccccc1-c1nc(NCc2cccnc2)c2ccccc2n1
AC50 (Cytochrome P450 2C19; read-out: AC50): 15.8 µM (inconclusive)
AC50 (Cytochrome P450 2D6): 39.8 µM (inconclusive)

CCO/C=C1/C(=O)N(Cc2ccccc2)C(=O)c2ccccc21
EC50 (Protein RecA): > 380 µM (inactive)

O=C1[C@H]2[C@@H](c3ccc(Cl)cc3)N3C(=O)N(c4cccc(Br)c4)C(=O)[C@@]3(Cc3ccc(Cl)cc3)[C@H]2C(=O)N1C1CCCCC1
EC50 [1]: 1.24 µM (active)
EC50 [2]: > 60 µM (not active)

Cn1c(=O)c2nc(CCCCC(=O)O)[nH]c2n(C)c1=O
AC50 (Cytochrome P450 2C19): inconclusive
AC50 (Cytochrome P450 1A2): 0.794 µM (inconclusive)

CC1=CC(=O)C2=C(C)C[C@@H](O)[C@@H]3[C@@H](OC(=O)[C@H]3C)[C@H]12
AC50 (Cytochrome P450 1A2): 25.1 µM (inconclusive)

Cc1cccc(C(=O)OC(C)CN2CCN(C)CC2)c1 (stereo not drawn)
EC50 [1]: 0.994 µM (active)
EC50 [2]: > 30 µM (not active)

O=C(Nc1nnc(C2CC2)s1)c1cc(S(=O)(=O)N2CCN(c3ccccc3)CC2)ccc1Cl
AC50 (Cytochrome P450 1A2): 11.2 µM (inconclusive)

O=C(Nc1cc(S(=O)(=O)N2CCOCC2)ccc1-n1cncn1)c1ccc(Cl)cc1
EC50 [1]: 2.54 µM (active)
EC50 [2]: > 60 µM (not active)

COc1ccc2c(c1)C1=NN(/C(C)=C\C(C)=O)C(c3ccccc3)C1CC2 (stereo not drawn)
EC50 [3]: 24.7 µM (active)
EC50 (H4): 7.74 µM (active)

COc1ccc(/C=C/C(=O)c2c(C)nc3ccccn23)cc1
EC50 [3]: 0.225 µM (active)
EC50 (H4): > 120 µM (not active)

O=S(=O)(c1ccc(F)cc1)c1nc(-c2ccccc2)oc1N1CCOCC1
EC50 [4]: > 150 µM (not active)
EC50 (Streptokinase A): > 150 µM (not active)
EC50 (Streptococcus): > 150 µM (not active)

O=C(/C=C/c1c(F)cccc1Cl)Nc1ncccn1
EC50 [3]: 0.974 µM (active)
EC50 (H4): 7.88 µM (active)

COc1ccc(-n2nc([N+](=O)[O-])c(NCCc3ccc(Cl)cc3)[n+]2[O-])cc1
EC50 [1]: 0.602 µM (active)
EC50 [2]: > 60 µM (not active)

COc1ccccc1CN1CCN(Cc2ccc(Cl)cc2)CC1
EC50 [1]: 0.439 µM (active)
EC50 [2]: > 60 µM (not active)

COc1ccc(-n2c(=O)c(C)nc3cnc(OC)nc32)cc1
AC50 (Cytochrome P450 2C19; read-out: AC50): 39.8 µM (inconclusive)
AC50 (Cytochrome P450 3A4): 25.1 µM (inconclusive)

CC1(C)CC(c2nc(-c3ccc(Cl)cc3)cs2)CCS1 (stereo not drawn)
EC50 [4]: 9.13 µM (active)
EC50 (Streptokinase A): 13.9 µM (active)
EC50 (Streptococcus): > 150 µM (not active)

COc1ccc([N+](=O)[O-])cc1NC(=S)NC(NC(=O)C(c1ccccc1)c1ccccc1)C(Cl)(Cl)Cl (stereo not drawn)
EC50 (Streptokinase A): > 150 µM (not active)

CN(C)c1ccc(-c2nc(NCc3cccnc3)c3ccccc3n2)cc1
AC50 (Cytochrome P450 2C19; read-out: AC50): 10 µM (inconclusive)

CCOc1ccc2nc(N(CCN(CC)CC)C(=O)c3ccc([N+](=O)[O-])cc3)sc2c1
EC50 [1]: 0.184 µM (active)
EC50 [2]: > 60 µM (not active)

O=C(c1cccc(F)c1)N1CCC2(CCCN(c3cccc(-c4ccccc4)c3)C2)CC1
AC50 (Cytochrome P450 1A2): 15.8 µM (inconclusive)

CS(=O)(=O)N1CCC2(CCCN(C(c3ccccc3)c3ccccc3)C2)CC1
AC50 (Cytochrome P450 2C19; read-out: AC50): 20 µM (inconclusive)

COc1ccccc1NC(=O)C1=C(C)Nc2nc(-c3ccc(N(C)C)cc3)nn2C1c1ccncc1 (stereo not drawn)
AC50 (Cytochrome P450 1A2): 12.6 µM (inconclusive)

CCOC(=O)c1nnn(-c2nonc2-n2cccc2)c1CN1CCC(C)CC1
EC50 [4]: 9.92 µM (active)
EC50 (Streptokinase A): 14.9 µM (active)
EC50 (Streptococcus): > 150 µM (not active)

O=C(c1cnc(N2CCN(c3ncccn3)CC2)c2ccccc12)N1CCN(c2ncccn2)CC1
AC50 (Cytochrome P450 2D6): 11.2 µM (inconclusive)
AC50 (Cytochrome P450 3A4): 39.8 µM (inconclusive)

Cc1ccc(C(CC(=O)c2ccco2)SCCO)cc1 (stereo not drawn)
AC50 (Cytochrome P450 1A2): 25.1 µM (inconclusive)

O=S(=O)(NCC(c1cccnc1)N1CCN(c2ccccc2)CC1)c1cc(F)ccc1F (stereo not drawn)
EC50 [1]: 0.508 µM (active)
EC50 [2]: > 60 µM (not active)

CCOc1ccc(NC(=O)CSc2nnc(Cc3ccccc3)c(=O)n2N)cc1
EC50 [4]: > 150 µM (not active)
EC50 (Streptokinase A): > 150 µM (not active)
EC50 (Streptococcus): > 150 µM (not active)

Cc1ccc(CCN2CC(C(=O)NCCN3CCCCCC3)CC2=O)cc1 (stereo not drawn)
AC50 (Cytochrome P450 2C19): inconclusive
AC50 (Cytochrome P450 2D6): 20 µM (inconclusive)
AC50 (Cytochrome P450 3A4): 35.5 µM (inconclusive)

CCn1c(C(=O)NCc2cccnc2)cc2sc(Cl)cc21
EC50 [1]: 1.12 µM (active)
EC50 [2]: > 60 µM (not active)

O=C(/C=C/c1ccccc1)N/C(=C/c1ccccc1)C(=O)Nc1ccccc1O
AC50 (Cytochrome P450 2C19; read-out: AC50): 17.8 µM (inconclusive)
AC50 (Cytochrome P450 2D6): 22.4 µM (inconclusive)

CC(C)(C)c1cc2cccnc2n1Cc1cccc(F)c1
AC50 (Cytochrome P450 2C19; read-out: AC50): 11.2 µM (inconclusive)
AC50 (Cytochrome P450 1A2): 12.6 µM (inconclusive)
AC50 (Cytochrome P450 3A4): 15.8 µM (inconclusive)

COc1cccc(Nc2c3c(nc4c(-c5ccccc5)c(C)nn24)CCC3)c1
EC50 [4]: 15 µM (active)
EC50 (Streptokinase A): 8.91 µM (active)
EC50 (Streptococcus): > 150 µM (not active)

Cc1ccc(Sc2nc(C)cc(C)c2S(C)(=O)=O)cc1
AC50 (Cytochrome P450 2D6): 17.8 µM (inconclusive)
AC50 (Cytochrome P450 3A4): 14.1 µM (inconclusive)

Cc1ccc2[nH]c(SCC(=O)Nc3nnc(SCC(N)=O)s3)nc2c1
AC50 (Cytochrome P450 2C19; read-out: AC50): 22.4 µM (inconclusive)
AC50 (Cytochrome P450 3A4): 22.4 µM (inconclusive)

CCCSc1nc(C)cc(C)c1C(N)=O
AC50 (Cytochrome P450 1A2): 28.2 µM (inconclusive)

O=S(=O)(O)c1ccc(O)c2ncccc12
AC50 (Cytochrome P450 1A2): 0.631 µM (inconclusive)

O=C(O)CCC(=O)N1CCC[C@H]1C(=O)O
AC50 (Cytochrome P450 2C19): inconclusive

O=[N+]([O-])c1cc(/C=N/O)ccc1SCc1ccccc1
AC50 (Cytochrome P450 2C19; read-out: AC50): 6.31 µM (inconclusive)
AC50 (Cytochrome P450 3A4): 11.2 µM (inconclusive)

COc1ccc2c(c1)N(C[C@@H](C)CN(C)C)c1ccccc1S2 [DEXTROMEPROMAZINE]
AC50 (Cytochrome P450 1A2): 15.8 µM (inconclusive)
AC50 (Cytochrome P450 3A4): 7.94 µM (inconclusive)
